Results reported in a compilation of properties of binary mixtures (doi:10.1016/j.jct.2020.106093).

Test: xn = mol fraction of the nth substance listed
Details: 100.9 kPa

CC(=O)[O-].CC[NH2+]CC + O
Details	electrical conductivity [S/m]	speed of sound [m/s]	viscosity [mPa·s]
283.15 K, x1 = 0.015	–	–	2.07
283.15 K, x1 = 0.055	–	–	5.43
283.15 K, x1 = 0.119	–	–	15.42
283.15 K, x1 = 0.549	–	–	143.2
283.15 K, x1 = 0.714	–	–	161.6
285.65 K, x1 = 0.015	–	–	1.92
285.65 K, x1 = 0.055	–	–	4.91
285.65 K, x1 = 0.119	–	–	13.69
285.65 K, x1 = 0.168	–	–	24.1
285.65 K, x1 = 0.24	–	–	47.8
285.65 K, x1 = 0.351	–	–	79.3
285.65 K, x1 = 0.549	–	–	122.5
285.65 K, x1 = 0.714	–	–	138.5
288.15 K, x1 = 0.015	–	–	1.78
288.15 K, x1 = 0.055	–	–	4.46
288.15 K, x1 = 0.119	–	–	12.18
288.15 K, x1 = 0.168	–	–	21.1
288.15 K, x1 = 0.24	–	–	41.6
288.15 K, x1 = 0.351	–	–	68.3
288.15 K, x1 = 0.714	–	–	119
290.65 K, x1 = 0.015	–	–	1.65
290.65 K, x1 = 0.055	–	–	4.05
290.65 K, x1 = 0.119	–	–	10.87
290.65 K, x1 = 0.168	–	–	18.7
290.65 K, x1 = 0.24	–	–	36.3
290.65 K, x1 = 0.351	–	–	59
290.65 K, x1 = 0.549	–	–	90.6
290.65 K, x1 = 0.714	–	–	102.7
293.15 K, x1 = 0.015	–	1580	1.538
293.15 K, x1 = 0.055	–	1761	3.73
293.15 K, x1 = 0.119	–	1844	9.74
293.15 K, x1 = 0.168	–	1826	16.49
293.15 K, x1 = 0.24	–	1768	31.8
293.15 K, x1 = 0.35	–	1704	–
293.15 K, x1 = 0.351	–	–	51.2
293.15 K, x1 = 0.549	–	1597	78.4
293.15 K, x1 = 0.708	–	1554	–
293.15 K, x1 = 0.714	–	–	89.2
293.15 K, x1 = 0.835	–	1523	–
295.65 K, x1 = 0.015	–	–	1.437
295.65 K, x1 = 0.055	–	–	3.4
295.65 K, x1 = 0.119	–	–	8.75
295.65 K, x1 = 0.24	–	–	28
295.65 K, x1 = 0.351	–	–	44.7
295.65 K, x1 = 0.549	–	–	68.4
295.65 K, x1 = 0.714	–	–	77.8
298.15 K, x1 = 0.007	1.55	–	–
298.15 K, x1 = 0.015	2.35	1588	1.346
298.15 K, x1 = 0.054	3.1	–	–
298.15 K, x1 = 0.055	–	1756	3.12
298.15 K, x1 = 0.119	–	1832	7.91
298.15 K, x1 = 0.12	2.48	–	–
298.15 K, x1 = 0.168	1.73	1813	13.13
298.15 K, x1 = 0.24	0.98	1754	24.8
298.15 K, x1 = 0.351	–	–	39.3
298.15 K, x1 = 0.353	0.708	–	–
298.15 K, x1 = 0.549	–	1583	59.9
298.15 K, x1 = 0.55	0.365	–	–
298.15 K, x1 = 0.714	0.26	–	68.2
298.15 K, x1 = 0.835	–	1507	–
298.15 K, x1 = 0.838	0.231	–	–
298.15 K, x1 = 0.945	0.23	–	–
300.65 K, x1 = 0.015	–	–	1.263
300.65 K, x1 = 0.055	–	–	2.88
300.65 K, x1 = 0.119	–	–	7.17
300.65 K, x1 = 0.24	–	–	21.9
300.65 K, x1 = 0.351	–	–	34.6
300.65 K, x1 = 0.549	–	–	52.4
300.65 K, x1 = 0.714	–	–	60
303.15 K, x1 = 0.007	1.69	–	–
303.15 K, x1 = 0.015	3.24	1595	1.189
303.15 K, x1 = 0.054	4.76	–	–
303.15 K, x1 = 0.055	–	1751	2.67
303.15 K, x1 = 0.119	–	1819	6.51
303.15 K, x1 = 0.12	3.2	–	–
303.15 K, x1 = 0.24	1.5	1741	19.6
303.15 K, x1 = 0.35	–	1677	–
303.15 K, x1 = 0.353	0.823	–	–
303.15 K, x1 = 0.549	–	1569	46.3
303.15 K, x1 = 0.55	0.473	–	–
303.15 K, x1 = 0.708	–	1524	–
303.15 K, x1 = 0.714	0.365	–	53
303.15 K, x1 = 0.838	0.297	–	–
303.15 K, x1 = 0.945	0.29	–	–
305.65 K, x1 = 0.015	–	–	1.121
305.65 K, x1 = 0.055	–	–	2.48
305.65 K, x1 = 0.119	–	–	5.94
305.65 K, x1 = 0.168	–	–	9.61
305.65 K, x1 = 0.351	–	–	27.2
305.65 K, x1 = 0.549	–	–	41.1
305.65 K, x1 = 0.714	–	–	47
308.15 K, x1 = 0.015	–	1601	1.059
308.15 K, x1 = 0.055	–	1745	2.31
308.15 K, x1 = 0.119	–	1807	5.44
308.15 K, x1 = 0.168	–	1786	8.71
308.15 K, x1 = 0.24	–	1727	15.67
308.15 K, x1 = 0.35	–	1664	–
308.15 K, x1 = 0.351	–	–	24.2
308.15 K, x1 = 0.549	–	1555	36.6
308.15 K, x1 = 0.708	–	1509	–
308.15 K, x1 = 0.714	–	–	41.9
310.65 K, x1 = 0.015	–	–	1.003
310.65 K, x1 = 0.055	–	–	2.15
310.65 K, x1 = 0.119	–	–	5
310.65 K, x1 = 0.168	–	–	7.94
310.65 K, x1 = 0.351	–	–	21.7
310.65 K, x1 = 0.714	–	–	37.4
310.65 K, x1 = 0.84	–	–	38
313.15 K, x1 = 0.015	–	1605	0.952
313.15 K, x1 = 0.055	–	1739	2.01
313.15 K, x1 = 0.119	–	1794	4.6
313.15 K, x1 = 0.168	–	1772	7.26
313.15 K, x1 = 0.24	–	1713	12.76
313.15 K, x1 = 0.35	–	1650	–
